{
  "source": "patent US20090036448A1",
  "about": "“PYRIMIDINE DERIVATIVES AND METHODS OF TREATMENT RELATED TO THE USE THEREOF” (TAISHO PHARMECUTICAL CO., LTD., priority 2004, published 2009)",
  "data": [
    {"biological_target": "MCH receptor (Homo sapiens, UniProt Q99705)", "sequence (Q99705 whole entry)": "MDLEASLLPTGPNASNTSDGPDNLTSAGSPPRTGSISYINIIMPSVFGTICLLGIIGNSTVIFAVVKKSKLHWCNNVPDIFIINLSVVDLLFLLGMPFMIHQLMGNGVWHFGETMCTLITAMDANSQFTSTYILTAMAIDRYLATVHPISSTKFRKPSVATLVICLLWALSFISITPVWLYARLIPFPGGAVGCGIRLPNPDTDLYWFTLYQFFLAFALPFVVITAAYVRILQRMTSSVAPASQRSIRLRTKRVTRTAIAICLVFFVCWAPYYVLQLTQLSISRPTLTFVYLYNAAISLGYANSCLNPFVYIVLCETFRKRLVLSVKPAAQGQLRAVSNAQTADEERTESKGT", "assay": "Receptor binding assay with Radiolabelled MCH Ligand", "set-up": "expressed in transfected cells; host or cells: 293 cells (human kidney, ATCC), transient transfection; crude membranes", "settings": "class by percent of control at 10^-7 M or IC50", "how_it_was_run": "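This was a filtration radioligand displacement assay: compounds, first tested at 1 and 0.1 μM and then over a range, inhibited binding of a labelled MCH ligand to transfected 293-cell membranes at room temperature for 60–120 min. Specific binding excluded a cold-MCH nonspecific signal. Ki was derived from IC50 via Cheng-Prusoff, using an independently measured KD.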", "values": [
      {"smiles": "Cc1nc(N[C@H]2CC[C@@H](NS(=O)(=O)c3ccc(-c4ccccc4)cc3)CC2)cc(N(C)C)n1", "note": "[compound 489]", "class": "3 (Class 3: The value of percent of control at 10^−7 M was more than 60% or the value of IC50 was more than 200 nM.)"},
      {"smiles": "Cc1nc(N[C@H]2CC[C@@H](NS(=O)(=O)c3cccc4c(N(C)C)cccc34)CC2)cc(N(C)C)n1", "note": "[compound 490]", "class": "3 (Class 3: The value of percent of control at 10^−7 M was more than 60% or the value of IC50 was more than 200 nM.)"},
      {"smiles": "Cc1nc(N[C@H]2CC[C@@H](NS(=O)(=O)c3ccccc3OC(F)(F)F)CC2)cc(N(C)C)n1", "note": "[compound 491]", "class": "3 (Class 3: The value of percent of control at 10^−7 M was more than 60% or the value of IC50 was more than 200 nM.)"},
      {"smiles": "Cc1nc(N[C@H]2CC[C@@H](NS(=O)(=O)c3cccc(OC(F)(F)F)c3)CC2)cc(N(C)C)n1", "note": "[compound 492]", "class": "3 (Class 3: The value of percent of control at 10^−7 M was more than 60% or the value of IC50 was more than 200 nM.)"},
      {"smiles": "COc1cccc(S(=O)(=O)N[C@H]2CC[C@@H](Nc3cc(N(C)C)nc(C)n3)CC2)c1", "note": "[compound 493]", "class": "3 (Class 3: The value of percent of control at 10^−7 M was more than 60% or the value of IC50 was more than 200 nM.)"},
      {"smiles": "CCCCOc1ccc(S(=O)(=O)N[C@H]2CC[C@@H](Nc3cc(N(C)C)nc(C)n3)CC2)cc1", "note": "[compound 494]", "class": "3 (Class 3: The value of percent of control at 10^−7 M was more than 60% or the value of IC50 was more than 200 nM.)"},
      {"smiles": "Cc1nc(N[C@H]2CC[C@@H](NS(=O)(=O)c3cc(Cl)c(Oc4ccc([N+](=O)[O-])cc4Cl)c(Cl)c3)CC2)cc(N(C)C)n1", "note": "[compound 495]", "class": "3 (Class 3: The value of percent of control at 10^−7 M was more than 60% or the value of IC50 was more than 200 nM.)"},
      {"smiles": "Cc1nc(N[C@H]2CC[C@@H](NS(=O)(=O)c3ccc(Oc4ccccc4)cc3)CC2)cc(N(C)C)n1", "note": "[compound 496]", "class": "3 (Class 3: The value of percent of control at 10^−7 M was more than 60% or the value of IC50 was more than 200 nM.)"},
      {"smiles": "Cc1nc(N[C@H]2CC[C@@H](NS(=O)(=O)c3ccc(Oc4ncc(C(F)(F)F)cc4Cl)cc3)CC2)cc(N(C)C)n1", "note": "[compound 497]", "class": "3 (Class 3: The value of percent of control at 10^−7 M was more than 60% or the value of IC50 was more than 200 nM.)"},
      {"smiles": "Cc1nc(N[C@H]2CC[C@@H](NS(=O)(=O)c3ccc(S(C)(=O)=O)cc3)CC2)cc(N(C)C)n1", "note": "[compound 498]", "class": "3 (Class 3: The value of percent of control at 10^−7 M was more than 60% or the value of IC50 was more than 200 nM.)"},
      {"smiles": "Cc1nc(N[C@H]2CC[C@@H](NS(=O)(=O)c3cccc(C#N)c3)CC2)cc(N(C)C)n1", "note": "[compound 499]", "class": "3 (Class 3: The value of percent of control at 10^−7 M was more than 60% or the value of IC50 was more than 200 nM.)"},
      {"smiles": "Cc1nc(N[C@H]2CC[C@@H](NS(=O)(=O)c3cccc(Br)c3)CC2)cc(N(C)C)n1", "note": "[compound 500]", "class": "3 (Class 3: The value of percent of control at 10^−7 M was more than 60% or the value of IC50 was more than 200 nM.)"},
      {"smiles": "Cc1nc(N[C@H]2CC[C@@H](NS(=O)(=O)c3ccc(Br)cc3OC(F)(F)F)CC2)cc(N(C)C)n1", "note": "[compound 501]", "class": "3 (Class 3: The value of percent of control at 10^−7 M was more than 60% or the value of IC50 was more than 200 nM.)"},
      {"smiles": "Cc1nc(N[C@H]2CC[C@@H](NS(=O)(=O)c3ccc(Cl)c(Cl)c3)CC2)cc(N(C)C)n1", "note": "[compound 502]", "class": "3 (Class 3: The value of percent of control at 10^−7 M was more than 60% or the value of IC50 was more than 200 nM.)"},
      {"smiles": "Cc1nc(N[C@H]2CC[C@@H](NS(=O)(=O)c3cccc(F)c3)CC2)cc(N(C)C)n1", "note": "[compound 503]", "class": "3 (Class 3: The value of percent of control at 10^−7 M was more than 60% or the value of IC50 was more than 200 nM.)"},
      {"smiles": "Cc1nc(N[C@H]2CC[C@@H](NS(=O)(=O)c3cccc([N+](=O)[O-])c3)CC2)cc(N(C)C)n1", "note": "[compound 504]", "class": "3 (Class 3: The value of percent of control at 10^−7 M was more than 60% or the value of IC50 was more than 200 nM.)"}
    ]}
  ]
}
